These results are taken from PMC6028718, “Lanthanide-Dependent Methanol Dehydrogenases of XoxF4 and XoxF5 Clades Are Differentially Distributed Among Methylotrophic Bacteria and They Reveal Different Biochemical Properties” (Frontiers in Microbiology, 2018).

Each structure is given as a SMILES string.

The experiment deals with T1, XoxF5.
T1 construct: His-tagged, expressed in native host Methylomonas sp; LW13 (wild-type) grown with Ce3+; Ni-NTA purified
Put plainly: PMS-mediated DCPIP reduction at […] nm. It counts as biochemical. As to conditions: pH 9.0, 45 mM NH4Cl, ~26°C, 1 mM PMS, 150 μM DCPIP; Ce3+-grown enzyme; read-out: Methylomonas sp. LW13 XoxF5 / Km.
On to `CCCCO` [Butanol], for which the Km is 96 ± 70 µM. To `CCO` [Ethanol] belongs 85 ± 44 µM; to `CCCCCCO` [Hexanol], 40 ± 37 µM; to `CO` [Methanol], 39 ± 11 µM.
